According to patent US11731976B2, “3-(ethoxydifluoromethyl)-6-(5-fluoro-6-(2,2,2-trifluoroethoxy)pyridin-3-yl)-[1,2,4]triazolo[4,3-a]pyridine as an ion channel modulator” (Praxis Precision Medicines, Inc., priority 2018, dated 2023):

Columns and labels:
hNaV1.1-WT = biological target: T1, hNaV1.1-WT (Homo sapiens, UniProt P35498); test: Voltage step activated sodium current (Peak INa), PatchXpress, HEK-293; format: cell-based; settings: percent inhibition measured at 1 μM; step to 0 mV from half-inactivation holding potential
T1 construct: expressed in transfected cells; host or cells: HEK-293
Procedure: (§1) Functional characterization of exemplary compounds to modulate INa expressed by various human isoforms and disease-causing mutant voltage-gated sodium channels was accomplished using the PatchXpress high throughput electrophysiology platform (Molecular Devices, Sunnyvale, Calif.). HEK-293 cells expressing a recombinant, human NaV1.X sodium channel (either hNaV1.6-WT, hNaV1.6-R223G, hNaV1.6-N984K, hNaV1.6-N1768D, hNaV1.1-WT, hNaV1.2-WT, hNaV1.5-WT, hNaV1.7-WT, or hNaV1.8-WT) were grown in DMEM/high-glucose Dulbecco's modified, 10% FBS, 2 mM sodium pyruvate, 10 mM HEPES and 400 μg/mL G418. Cells were grown to 50%-80% confluency prior to harvesting. Trypsinized cells were washed, allowed to recover for 1 hour and then resuspended in extracellular recording solution at a concentration of 1×10^6 cells/ml. The onboard liquid handling facility of the PatchXpress was used for dispensing cells and applying test compounds. INa amplitude and stability were determined by analyzing the peak current amplitude.
(§2) Peak INa was evoked by depolarizing steps to 0 mV for 20 ms from a holding potential which evoked half-inactivation (e.g., −60 mV) at a frequency of 0.1 Hz. The voltage of half-inactivation was determined for each cell using a 5 sec prepulse to membrane potentials between −120 mV and −20 mV followed immediately by a voltage step to a fully activating membrane voltage (e.g., 0 mV). Following steady state block with exemplary compounds (e.g., as described herein), the degree of inhibition was measured using the average of three consecutive voltage steps. Percent steady-state inhibition of INa was calculated as: [(INa_compound)/(INa_control)]*100, where INa_compound and INa_control represent INa recorded in the presence or absence of compound, respectively.
(§3) In this table, “A” indicates inhibition between less than 0% to 50% and “B” indicates inhibition of greater than 50% and N/A indicates the compound was not tested.

hNaV1.5-WT = biological target: T2, hNaV1.5-WT (Homo sapiens, UniProt Q14524); test: as above; format: cell-based; settings: HEK293; percent inhibition measured at 1 μM; step to 0 mV from half-inactivation holding potential
T2 construct: expressed in transfected cells; host or cells: HEK-293
Procedure: as §1, §2, §3

hNaV1.6-WT = biological target: T3, hNaV1.6-WT (Homo sapiens, UniProt Q9UQD0); test: as above; format: cell-based; settings: HEK293; percent inhibition measured at 1 μM; step to 0 mV from half-inactivation holding potential
T3 construct: expressed in transfected cells; host or cells: HEK-293
Procedure: as §1, §2, §3

hNaV1.7-WT = biological target: T4, hNaV1.7-WT (Homo sapiens, UniProt Q15858); test: as above; format: cell-based; settings: HEK293; percent inhibition measured at 1 μM; step to 0 mV from half-inactivation holding potential
T4 construct: expressed in transfected cells; host or cells: HEK-293
Procedure: as §1, §2, §3

hNaV1.8-WT = biological target: T5, hNaV1.8-WT (Homo sapiens, UniProt Q9Y5Y9); test: as above; format: cell-based; settings: HEK293; percent inhibition measured at 1 μM; step to 0 mV from half-inactivation holding potential
T5 construct: expressed in transfected cells; host or cells: HEK-293
Procedure: as §1, §2, §3

Male CD-1 mice = test: Maximal Electroshock induced Seizure (MES) assay in mice; format: in vivo, mouse; settings: 35% HPCD, recorded up to 60 seconds post stimulus
Procedure: Male CD-1 mice, weighing 25-35 g were assessed in the Maximal Electroshock induced Seizure (MES) assay. Briefly, mice were dosed with compound (n=12/group) according to the dosing parameters in Table 20 and the latency to induce tonic hind limb extension following transauricular electrical stimulation (50 Hz, 50 mA, 0.8 sec duration, pulse width of 10 ins) was recorded up to 60 seconds post stimulus.

hNaV1.6-N1768D = biological target: T6, hNaV1.6-N1768D (Homo sapiens, UniProt Q9UQD0, N1768D); test: Voltage ramp activated sodium current (Ramp INa), PatchXpress, HEK-293; format: cell-based; settings: HEK293; percent inhibition of enhanced ramp current at 1 μM; +600 mv/sec ramp from −100 mV to +20 mV
T6 construct: expressed in transfected cells; host or cells: HEK-293
Procedure: as §1
(§4) The Nav1.6 mutant channels (hNaV1.6-R223G, hNaV1.6-N984K, hNaV1.6-N1768D) express an enhanced sodium current in response to a ramp voltage depolarization when compared to the wild-type hNaV1.6-WT. This enhanced, depolarizing ramp current is thought to contribute to enhanced neuronal excitability. The degree of block with exemplary compounds (e.g., as described herein) was measured using a +600 mv/sec voltage ramp from −100 mV to +20 mV. The ramp current was defined as the area of the current measured between −55 mV and +15 mV. Following steady state block with exemplary compounds (e.g., as described herein) at 1 μM, a Na^+ free solution containing an impermeant cation (e.g., Choline or NMDG) was added for determination of the baseline current level for offline subtraction. Percent inhibition of enhanced ramp current was calculated as (compound−baseline)/(control−baseline)*100, where control represents the ramp current recorded in the absence of compound. In this table, “A” indicates inhibition between less than 0% to 50% and “B” indicates inhibition of greater than 50% and N/A indicates the compound was not tested.

hNaV1.6-R223G = biological target: T7, hNaV1.6-R223G (Homo sapiens, UniProt Q9UQD0, R223G); test: as above; format: cell-based; settings: HEK293; percent inhibition of enhanced ramp current at 1 μM; +600 mv/sec ramp from −100 mV to +20 mV
T7 construct: expressed in transfected cells; host or cells: HEK-293
Procedure: as §1, §4

hNaV1.6-N984K = biological target: T8, hNaV1.6-N984K (Homo sapiens, UniProt Q9UQD0, N984K); test: as above; format: cell-based; settings: HEK293; percent inhibition of enhanced ramp current at 1 μM; +600 mv/sec ramp from −100 mV to +20 mV
T8 construct: expressed in transfected cells; host or cells: HEK-293
Procedure: as §1, §4

human NaV1.6 (hNaV1.6) = biological target: T9, human NaV1.6 (hNaV1.6) (Homo sapiens, UniProt Q9UQD0); test: Modulation of late sodium current (INaL), PatchXpress electrophysiology, HEK-293 cells expressing hNaV1.6; format: cell-based; settings: HEK293, late current evoked by 300 nM ATX-II, read-out: NaV 1.6 Assay Data: percent inhibition of INaL at hNaV1.6
T9 construct: expressed in transfected cells; host or cells: HEK-293
Summary of the method: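 PatchXpress automated patch clamp on HEK-293 cells expressing recombinant hNaV1.6; late current enhanced with 300 nM ATX-II. INaL evoked by 200 ms steps to 0 mV from about −120 mV at 0.1 Hz, measured as mean amplitude over the final 20 ms. Percent steady-state inhibition versus control current.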

hNaV1.2-WT = biological target: T10, hNaV1.2-WT (Homo sapiens, UniProt Q99250); test: Voltage step activated sodium current (Peak INa), PatchXpress, HEK-293; format: cell-based; settings: percent inhibition measured at 1 μM; step to 0 mV from half-inactivation holding potential
T10 construct: expressed in transfected cells; host or cells: HEK-293
Procedure: as §1, §2, §3

[1] = biological target: T11, human NaV 1.2 (h NaV 1.2) (Homo sapiens, UniProt Q99250); test: Modulation of late sodium current (INaL), PatchXpress electrophysiology, HEK-293 cells expressing hNaV1.2; format: cell-based; settings: HEK293, read-out: NaV 1.2 Assay Data: percent inhibition of INaL at hNaV1.2
T11 construct: expressed in transfected cells; host or cells: HEK-293

[2] = 3 mg/kg PO, pre-treatment 30 min
[3] = 10 mg/kg PO, pre-treatment 30 min

T6 sequence (Q9UQD0 whole entry N1768D): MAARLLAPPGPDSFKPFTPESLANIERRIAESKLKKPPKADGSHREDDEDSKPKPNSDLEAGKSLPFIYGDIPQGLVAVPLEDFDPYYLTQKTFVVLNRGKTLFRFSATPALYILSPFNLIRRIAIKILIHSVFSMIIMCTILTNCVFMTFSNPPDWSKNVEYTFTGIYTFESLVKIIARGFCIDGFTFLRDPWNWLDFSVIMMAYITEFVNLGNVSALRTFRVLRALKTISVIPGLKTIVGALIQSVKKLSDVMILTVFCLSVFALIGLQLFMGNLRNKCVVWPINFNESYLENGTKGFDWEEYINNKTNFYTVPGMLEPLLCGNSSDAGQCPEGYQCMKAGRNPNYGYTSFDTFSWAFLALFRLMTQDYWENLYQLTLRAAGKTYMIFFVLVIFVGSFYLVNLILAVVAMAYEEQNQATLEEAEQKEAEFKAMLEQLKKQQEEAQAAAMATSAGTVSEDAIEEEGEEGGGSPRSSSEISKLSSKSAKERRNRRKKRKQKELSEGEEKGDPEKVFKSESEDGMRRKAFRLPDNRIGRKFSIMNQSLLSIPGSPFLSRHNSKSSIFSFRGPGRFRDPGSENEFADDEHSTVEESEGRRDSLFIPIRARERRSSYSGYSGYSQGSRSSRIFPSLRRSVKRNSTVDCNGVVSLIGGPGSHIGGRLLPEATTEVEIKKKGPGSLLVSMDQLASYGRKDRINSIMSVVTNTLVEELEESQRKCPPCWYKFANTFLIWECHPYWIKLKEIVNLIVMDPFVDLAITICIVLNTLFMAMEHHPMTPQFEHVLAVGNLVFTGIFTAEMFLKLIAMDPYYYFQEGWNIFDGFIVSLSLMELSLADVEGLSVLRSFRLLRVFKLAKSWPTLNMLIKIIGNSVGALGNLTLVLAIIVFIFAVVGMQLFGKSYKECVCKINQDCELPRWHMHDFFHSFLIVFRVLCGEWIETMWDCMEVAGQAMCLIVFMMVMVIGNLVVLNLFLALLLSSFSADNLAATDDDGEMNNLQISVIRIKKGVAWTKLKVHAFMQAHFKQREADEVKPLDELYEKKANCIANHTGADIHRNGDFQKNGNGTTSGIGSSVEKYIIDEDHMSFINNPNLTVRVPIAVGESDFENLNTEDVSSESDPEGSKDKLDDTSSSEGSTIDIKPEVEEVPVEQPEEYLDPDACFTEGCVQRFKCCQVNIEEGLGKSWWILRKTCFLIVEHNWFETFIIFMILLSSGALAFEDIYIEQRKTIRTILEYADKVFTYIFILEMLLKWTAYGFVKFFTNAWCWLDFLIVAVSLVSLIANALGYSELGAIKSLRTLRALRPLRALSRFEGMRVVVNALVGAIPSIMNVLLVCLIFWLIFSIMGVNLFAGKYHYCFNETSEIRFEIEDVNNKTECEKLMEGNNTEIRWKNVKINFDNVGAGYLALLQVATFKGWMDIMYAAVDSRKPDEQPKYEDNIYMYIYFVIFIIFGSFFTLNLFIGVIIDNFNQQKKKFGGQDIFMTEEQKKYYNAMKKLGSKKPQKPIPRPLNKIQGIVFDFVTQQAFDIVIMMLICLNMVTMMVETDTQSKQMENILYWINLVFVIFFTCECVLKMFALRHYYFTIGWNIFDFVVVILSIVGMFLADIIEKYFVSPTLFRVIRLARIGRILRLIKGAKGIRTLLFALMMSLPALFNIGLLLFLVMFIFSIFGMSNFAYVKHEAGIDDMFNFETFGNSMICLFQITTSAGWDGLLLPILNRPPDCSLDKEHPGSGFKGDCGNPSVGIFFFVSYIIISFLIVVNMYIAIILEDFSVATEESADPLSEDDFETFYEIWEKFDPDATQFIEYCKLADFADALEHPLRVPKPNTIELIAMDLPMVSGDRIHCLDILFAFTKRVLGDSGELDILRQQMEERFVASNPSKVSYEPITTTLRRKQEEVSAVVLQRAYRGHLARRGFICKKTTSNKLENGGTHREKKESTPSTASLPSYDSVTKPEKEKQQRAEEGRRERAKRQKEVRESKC
T5 sequence (Q9Y5Y9 whole entry): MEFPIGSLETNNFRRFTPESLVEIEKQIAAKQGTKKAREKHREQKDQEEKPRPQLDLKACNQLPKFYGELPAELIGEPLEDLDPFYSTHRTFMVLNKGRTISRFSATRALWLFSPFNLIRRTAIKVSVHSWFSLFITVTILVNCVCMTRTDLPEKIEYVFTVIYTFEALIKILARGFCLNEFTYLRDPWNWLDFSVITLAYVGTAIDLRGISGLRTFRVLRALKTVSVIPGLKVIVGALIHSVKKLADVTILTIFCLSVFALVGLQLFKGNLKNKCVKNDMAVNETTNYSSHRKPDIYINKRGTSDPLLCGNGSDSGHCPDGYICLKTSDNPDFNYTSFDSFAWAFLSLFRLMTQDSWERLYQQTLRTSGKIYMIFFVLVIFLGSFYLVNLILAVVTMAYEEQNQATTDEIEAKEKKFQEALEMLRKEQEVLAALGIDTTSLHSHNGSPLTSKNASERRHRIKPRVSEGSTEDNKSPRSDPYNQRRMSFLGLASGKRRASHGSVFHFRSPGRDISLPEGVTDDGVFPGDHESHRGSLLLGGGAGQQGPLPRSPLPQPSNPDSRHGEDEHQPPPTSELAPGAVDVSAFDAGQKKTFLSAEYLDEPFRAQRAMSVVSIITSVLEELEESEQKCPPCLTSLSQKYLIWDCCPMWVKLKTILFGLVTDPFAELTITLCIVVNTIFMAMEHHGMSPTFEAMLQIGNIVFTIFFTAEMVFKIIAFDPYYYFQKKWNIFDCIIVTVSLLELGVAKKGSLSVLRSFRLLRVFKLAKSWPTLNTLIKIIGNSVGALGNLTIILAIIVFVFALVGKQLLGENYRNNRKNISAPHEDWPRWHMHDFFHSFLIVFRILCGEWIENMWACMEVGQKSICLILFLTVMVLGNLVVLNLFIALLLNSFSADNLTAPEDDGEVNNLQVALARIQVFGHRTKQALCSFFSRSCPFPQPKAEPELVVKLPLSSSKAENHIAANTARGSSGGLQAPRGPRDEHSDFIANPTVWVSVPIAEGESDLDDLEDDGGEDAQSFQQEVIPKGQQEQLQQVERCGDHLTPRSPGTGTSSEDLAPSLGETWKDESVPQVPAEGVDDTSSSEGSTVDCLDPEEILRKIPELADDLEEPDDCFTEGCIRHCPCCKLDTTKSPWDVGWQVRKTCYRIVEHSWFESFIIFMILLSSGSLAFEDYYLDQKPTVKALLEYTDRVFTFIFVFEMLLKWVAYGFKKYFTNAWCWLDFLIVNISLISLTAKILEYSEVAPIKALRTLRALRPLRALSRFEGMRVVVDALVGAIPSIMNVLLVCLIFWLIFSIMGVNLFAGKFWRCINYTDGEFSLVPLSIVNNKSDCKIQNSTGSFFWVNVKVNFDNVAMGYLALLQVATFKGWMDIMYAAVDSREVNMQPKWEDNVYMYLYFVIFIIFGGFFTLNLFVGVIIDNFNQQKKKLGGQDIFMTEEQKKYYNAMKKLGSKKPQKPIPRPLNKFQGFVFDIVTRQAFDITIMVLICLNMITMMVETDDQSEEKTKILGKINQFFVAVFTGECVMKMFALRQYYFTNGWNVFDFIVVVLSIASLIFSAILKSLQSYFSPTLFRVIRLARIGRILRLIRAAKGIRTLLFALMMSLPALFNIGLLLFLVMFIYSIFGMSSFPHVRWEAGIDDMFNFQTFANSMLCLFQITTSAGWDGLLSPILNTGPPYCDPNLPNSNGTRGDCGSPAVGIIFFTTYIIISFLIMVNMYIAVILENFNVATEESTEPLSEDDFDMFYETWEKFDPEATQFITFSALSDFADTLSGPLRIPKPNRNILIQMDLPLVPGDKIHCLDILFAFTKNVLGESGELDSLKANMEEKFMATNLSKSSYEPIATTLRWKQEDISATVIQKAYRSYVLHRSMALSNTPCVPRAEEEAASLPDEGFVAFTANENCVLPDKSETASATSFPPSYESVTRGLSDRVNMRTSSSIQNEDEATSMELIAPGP
T7 sequence (Q9UQD0 whole entry R223G): as the sequence (Q9UQD0 whole entry N1768D) above, with R223G, D1768N counted along it
T3 sequence (Q9UQD0 whole entry): as the sequence (Q9UQD0 whole entry N1768D) above, with D1768N counted along it
T9 sequence (Q9UQD0 whole entry): as the sequence (Q9UQD0 whole entry N1768D) above, with D1768N counted along it
T8 sequence (Q9UQD0 whole entry N984K): as the sequence (Q9UQD0 whole entry N1768D) above, with N984K, D1768N counted along it

| Compound | hNav1.1 Peak INa (hNaV1.1-WT) | inhibition at 1 µM (hNaV1.5-WT) [%] | inhibition at 1 µM (hNaV1.6-WT) [%] | inhibition at 1 µM (hNaV1.7-WT) [%] | inhibition at 1 µM (hNaV1.8-WT) [%] | Mean latency to tonic extension (Male CD-1 mice; [2]) [s] | Mean latency to tonic extension (Male CD-1 mice; [3]) [s] | inhibition at 1 µM (hNaV1.6-N1768D) [%] | inhibition at 1 µM (hNaV1.6-R223G) [%] | inhibition at 1 µM (hNaV1.6-N984K) [%] | inhibition at 1 µM (human NaV1.6 (hNaV1.6)) [%] | hNav1.2 Peak INa (hNaV1.2-WT) | Mean latency to tonic extension (Male CD-1 mice; 1 mg/kg PO, pre-treatment 120 min) [s] | Mean latency to tonic extension (Male CD-1 mice; 3 mg/kg PO, pre-treatment 120 min) [s] | inhibition at 1 µM [1] [%] | Mean latency to tonic extension (Male CD-1 mice; 1 mg/kg PO, pre-treatment 30 min) [s] |
| --- | --- | --- | --- | --- | --- | --- | --- | --- | --- | --- | --- | --- | --- | --- | --- | --- |
| CCOC(F)(F)c1nnc2ccc(-c3cnc(OCC(F)(F)F)c(F)c3)cn12 [Compound 3, 3-[ethoxy(difluoro)methyl]-6-[5-fluoro-6-(2,2,2-trifluoroethoxy)-3-pyridyl]-[1,2,4]triazolo[4,3-a]pyridine] | B (inhibition of greater than 50%) | > 50 | > 50 | > 50 | > 50 | 60 | 60 | > 50 | > 50 | > 50 | > 70 |  |  |  |  |  |
| COC(F)(F)c1nnc2cnc(-c3cnc(O[C@@H](C)C(F)(F)F)c(F)c3)cn12 [Compound 6B, 3-[difluoro(methoxy)methyl]-6-[5-fluoro-6-[(1S)-2,2,2-trifluoro-1-methyl-ethoxy]-3-pyridyl]-[1,2,4]triazolo[4,3-a]pyrazine] | B (inhibition of greater than 50%) | > 50 | > 50 | > 50 | > 50 |  |  | > 50 | > 50 | > 50 | > 70 | B (inhibition of greater than 50%) | 17.3 | 50.5 |  |  |
| CCOC(F)(F)c1nnc2cnc(-c3cnc(OCC(F)(F)F)c(F)c3)cn12 [Compound 10] | B (inhibition of greater than 50%) | > 50 | > 50 | > 50 | > 50 | 36.3 | 55.2 | > 50 | > 50 | < 50 | > 70 | A (inhibition between less than 0% to 50%) |  |  | > 70 | 7.9 |
| COC(F)(F)c1nnc2cnc(-c3cnc(OC4(C(F)(F)F)CCC4)c(F)c3)cn12 [Compound 11, 3-[difluoro(methoxy)methyl]-6-[5-fluoro-6-[1-(trifluoromethyl)cyclobutoxy]-3-pyridyl]-[1,2,4]triazolo[4,3-a]pyrazine] | B (inhibition of greater than 50%) | > 50 | > 50 | > 50 | > 50 |  |  | > 50 | < 50 | > 50 | > 70 |  |  |  |  |  |
| CCOC(F)(F)c1nnc2ccc(-c3cnc(OCC(F)(F)F)c(F)c3)nn12 [Compound 16, 3-[ethoxy(difluoro)methyl]-6-[5-fluoro-6-(2,2,2-trifluoroethoxy)-3-pyridyl]-[1,2,4]triazolo[4,3-b]pyridazine] |  |  |  |  |  |  |  |  |  |  | > 70 |  |  |  | > 70 |  |
| COCc1nnc2cnc(-c3cnc(OC(C)(C)C(F)(F)F)c(F)c3)cn12 [Compound 48] |  | > 50 | > 50 | > 50 | > 50 | 42.5 | 60 | > 50 | < 50 | < 50 | > 70 |  |  |  |  |  |
| COC(F)(F)c1nnc2cnc(-c3ccc(OC(C)(C)C(F)(F)F)nc3)cn12 [Compound 56, 3-[difluoro(methoxy)methyl]-6-[6-(2,2,2-trifluoro-1,1-dimethyl-ethoxy)-3-pyridyl]-[1,2,4]triazolo[4,3-a]pyrazine] | B (inhibition of greater than 50%) | > 50 | > 50 | > 50 | > 50 |  |  | > 50 | < 50 | > 50 | > 70 | B (inhibition of greater than 50%) |  |  | > 70 |  |
| COC(F)(F)c1nnc2cnc(-c3ccc(O[C@@H](C)C(F)(F)F)nc3)cn12 [Compound 59, 3-[difluoro(methoxy)methyl]-6-[6-[(1S)-2,2,2-trifluoro-1-methyl-ethoxy]-3-pyridyl]-[1,2,4]triazolo[4,3-a]pyrazine] | B (inhibition of greater than 50%) | > 50 | > 50 | > 50 | > 50 |  |  | > 50 | > 50 | > 50 | > 70 | B (inhibition of greater than 50%) |  |  | > 70 |  |
